Reference: patent US20070207975A1, “Materials and methods for treating and preventing Her-2/neu overexpressing, FAS-elevated cancer cells” (EVANSTON NORTHWESTERN HEALTHCARE, priority 2006, published 2007)

Key:
[1] = test system: BT-474 cells; test: MTT cell viability / isobologram analysis, BT-474; assay type: cell-based, human
Experimental: FIG. 10. […] Cells in exponential growth were harvested, seeded at a concentration of ˜5×10^3 cells/200 μl/well into 96-well plates and allowed to attach overnight. […] Agents were studied in combination concurrently, and they were not renewed during the entire period of cell exposure. After treatment, the medium was removed and replaced by fresh drug-free medium (100 μl/well), and MTT (5 mg/ml in phosphate-buffered saline [PBS]) was added to each well at a 1/10 volume. After 2-3 hours at 37° C., the supernatants were removed, 100 μl of dimethylsulfoxide was added to each well, and the plates were agitated. Absorbances were measured at 570 nm using a multiwell plate reader (Model Anthos Labtec 2010 1.7 reader). The cell viability effects from exposure of cells to each agent alone and to their combination were analyzed by generating concentration-effect curves as a plot of the fraction of unaffected (surviving) cells versus drug concentration. Dose-response curves were plotted as percentages of the control cell absorbances, which were obtained from control wells treated with appropriate concentrations of vehicles that were processed simultaneously. For each treatment, cell viability was evaluated as a percentage using the following equation: (A570 of treated sample/A570 of untreated sample)×100. […] All statistical tests were two-sided. […]

[2] = test system: BT-474 cells; test: TUNEL apoptosis assay, BT-474; assay type: cell-based, human
Experimental: FIG. 6. […] The immunofluorescence photomicrographs of cells undergoing apoptosis (green staining) and the corresponding DAPI-counterstained photomicrographs are shown. […] Equal amounts of total protein (50 μg per lane) were subjected to Western blot analyses with a specific antibody against the p85 fragment of PARP, and then re-probed with a β-actin antibody. […] For each pair of columns, the height of the columns on the left represents the sum of the effect of each agent alone and, therefore, the expected apoptotic cell death if their effect was additive when used in combination. The total height of the columns on the right indicates the observed apoptosis when the agents were used in combination. […] A) Cell surface expression of Her-2/neu protein in BT-474 and SK-Br3 cells was determined by flow cytometry using a mouse anti-Her-2/neu antibody directed against the extracellular domain of the p185^Her-2/neu oncoprotein (clone Ab-5; Oncogene Research Products; San Diego, Calif.). […] The mean fluorescence signal associated with cells for labeled p185^Her-2/neu was quantified using the Geo Mean (GM) fluorescence parameter provided with the software. […] Immunoreactive bands were detected by enhanced chemiluminescence reagent (Pierce, Rockford, Ill.). […] Densitometric values of protein bands were quantified using Scion Imaging Software (Scion Corp., Frederick, Md.).

[3] = test system: Breast Cancer Cells; test: Effect of fatty acids, breast cancer cells (Table 2); assay type: cell-based; conditions: FAS named only for oleic acid
[4] = test system: SK-Br3 and BT-474 cells; test: Soft-agar colony-formation assay; assay type: cell-based, human

Structure (SMILES) | increase in sensitivity to trastuzumab ([1]; concurrent 10 μg/ml GLA) | cells that underwent apoptosis (TUNEL) ([2]; GLA 10 μg/mL, trastuzumab 10 μg/mL, alone or together, 48 hours) | Effect of Fatty Acids: Breast Cancer Cells [3] | anchorage-independent growth in soft agar, effect of GLA cotreatment ([4]; BT-474 and SK-Br3, GLA with suboptimal doses of trastuzumab) | sensitization factor (IC50 without OA / IC50 with OA) ([1]; 10 mM OA, sensitization to trastuzumab) | TUNEL-positive cells ([2]; OA 5 μM, trastuzumab 10 μg/ml, alone or simultaneously, 72 hours) | anchorage-independent colony formation in soft agar ([4]; SK-Br3 and BT-474, OA, trastuzumab or co-exposure)
CCCCCC=CCC=CCC=CCCCCC(=O)O [GLA, 6,9,12-octadecatrienoic acid] | approximately 30 fold | 5% (95% confidence interval [CI]=4% to 6%) | Potent Down-regulator | enhanced the growth-inhibitory effects | – | – | –
CCCCCCCCC=CCCCCCCCC(=O)O [OA, 9-octadecenoic acid] | – | – | Down-regulates | – | 40 fold | 2% | slightly decreased
